Measured values: paper PMC11954145, “Antimicrobial and ADME properties of methoxylated, methylated and nitrated 2-hydroxynaphthalene-1 carboxanilides” (ADMET & DMPK, 2025)
Converted amounts (≈) assume the structure as drawn. “And” between values parts separate entries of the source, which are not always exact repeats. Equal values may be shown once. Read-outs that look alike come from different tables or passages of the source.

Assays:
[1] = tested on: E. coli ATCC 25922; assay: Antibacterial screening, broth microdilution MIC; assay type: cell-based; details: Escherichia coli, ATCC25922; ATCC 25922, 24 h at 37 °C
[2] = tested on: Enterococcus faecalis ATCC 29212; assay: Antibacterial screening, broth microdilution MIC; assay type: cell-based; details: ATCC29212, ATCC 29212, 24 h at 37 °C, read-out: MIC E. faecalis
[3] = tested on: Mycobacterium tuberculosis ATCC 25177/H37Ra; assay: Antimycobacterial screening, broth dilution MIC (Alamar blue); assay type: cell-based; details: 336 h, H37Ra, 14 days at 37 °C, Alamar blue, read-out: MIC M. tuberculosis
Protocol: The evaluation of in vitro antimycobacterial activity of the compounds was performed against Mycobacterium tuberculosis ATCC 25177/H37Ra, Mycobacterium kansasii DSM 44162 and Mycobacterium smegmatis ATCC 700084.
The broth dilution micro-method in Middlebrook 7H9 medium (Difco, Lawrence, KS, USA) supplemented with ADC Enrichment (Difco) was used to determine the minimum inhibitory concentration (MIC) as previously described. […] The final concentrations of the evaluated compounds, ranging from 256 to 0.125 μg mL^-1, were obtained by twofold serial dilution of the stock solution in a microtiter plate with a sterile medium. Bacterial inocula were prepared by transferring colonies from culture to sterile water. The plate was inoculated by tested microorganisms. The final concentration of bacterial cells was 1.5×10^6 for M. tuberculosis and 10^5 cells in a microtiter plate for other mycobacteria. Isoniazid and rifampicin (Sigma) were used as reference antimycobacterial drugs. Drug-free controls, sterility controls, and controls consisting of medium and DMSO alone were included. The plates were incubated for a defined time at an appropriate temperature (3 days at 37 °C for M. smegmatis, and 14 days at 37 °C for M. tuberculosis and M. kansasii). […] The MICs against M. tuberculosis were evaluated by Alamar blue (Oxoid). After incubation, 10 % of Alamar blue was added to each well, and the plate was incubated for 24 h. The MIC values were assessed as the lowest concentration of the tested compounds, which prevented changing blue resazurin to pink resorufin. The experiments were repeated three times. The minimum inhibitory concentrations (MICs) were defined as the lowest concentration of the compound at which no visible bacterial growth was observed. The MIC value is routinely and widely used in bacterial assays and is a standard detection limit according to the CLSI [60].

[4] = tested on: VRE 725B; assay: Antibacterial screening, broth microdilution MIC; assay type: cell-based, vancomycin-resistant E. faecalis; details: Enterococcus, vanA isolate, 24 h at 37 °C, read-out: MIC VRE 725B
[5] = Lipophilicity determination by RP-HPLC (log k, log D); assay type: physicochemical; details: for log D6.5: RP-HPLC C18, MeOH 72 % / acetate-buffered saline pH 6.5; for log D7.4: RP-HPLC C18, MeOH 72 % / acetate-buffered saline pH 7.4; for log k (logarithm of the capacity factor): RP-HPLC C18, MeOH 72 % / water 28 %
From the text: An HPLC system Agilent 1200 equipped with a DAD detector (Agilent, Santa Clara, CA, USA) was used. A chromatographic column Symmetry® C18 5 μm, 4.6×250 mm, part No. WAT054275 (Waters Corp., Milford, MA, USA) was used. The HPLC separation process was monitored and evaluated with EZChrom Elite software ver. 3.3.2 (Agilent). Isocratic elution by a mixture of MeOH p.a. (72 %) and H2O-HPLC Mili-Q grade (28 %) as a mobile phase was used for the determination of capacity factor k. Isocratic elution by a mixture of MeOH p.a. (72 %) and acetate-buffered saline (pH 7.4 and pH 6.5) (28 %) as a mobile phase was used for the determination of distribution coefficients expressed as D7.4 and D6.5. The total flow of the column was 1.0 mL min^-1, the injection volume was 20 μL, the column temperature was 40 °C, and the sample temperature was 10 °C. The detection wavelength of 210 nm was chosen. A KI methanolic solution was used to determine the dead times (tD). Retention times (tR) were measured in minutes. The capacity factors k were calculated according to the formula k = (tR–tD)/tD, where tR is the retention time of the solute, and tD is the dead time obtained using an unretained analyte. The distribution coefficients DpH were calculated according to the formula DpH = (tR–tD)/tD. Each experiment was repeated three times.
The capacity factor and distribution coefficients were measured by RP-HPLC on a C18 column with methanol as an organic modifier of the mobile phase. In addition to the experimental lipophilicities, predicted log P values were also calculated using ACD/Percepta, see Table 1. […] The values of σ(Ar) are found in a wide range from 0.01 to 1.36, so the compounds contain substituents with both electron-donating and slightly electron-withdrawing properties.

[6] = tested on: MRSA SA 3202; assay: Antibacterial screening, broth microdilution MIC; assay type: cell-based, methicillin-resistant S. aureus; details: Staphylococcus aureus, clinical isolate, 24 h at 37 °C, read-out: MIC MRSA SA 3202
[7] = tested on: S. aureus ATCC 29213; assay: Antibacterial screening, broth microdilution MIC; assay type: cell-based; details: Staphylococcus aureus, ATCC29213; ATCC 29213, 24 h at 37 °C; read-out: MIC S. aureus
[8] = tested on: VRE 368; assay: Antibacterial screening, broth microdilution MIC; assay type: cell-based, vancomycin-resistant E. faecalis; details: Enterococcus, vanA isolate, 24 h at 37 °C, read-out: MIC VRE 368
[9] = tested on: Mycobacterium kansasii DSM 44162; assay: Antimycobacterial screening, broth dilution MIC; assay type: cell-based; details: DSM44162, 336 h, read-out: MIC M. kansasii
[10] = tested on: VRE 342B; assay: Antibacterial screening, broth microdilution MIC; assay type: cell-based, vancomycin-resistant E. faecalis; details: Enterococcus, vanA isolate, 24 h at 37 °C, read-out: MIC VRE 342B
[11] = tested on: MRSA 63718; assay: Antibacterial screening, broth microdilution MIC; assay type: cell-based, methicillin-resistant S. aureus; details: Staphylococcus aureus, clinical isolate, 24 h at 37 °C, read-out: MIC MRSA 63718
[12] = tested on: Mycobacterium smegmatis ATCC 700084; assay: Antimycobacterial screening, broth dilution MIC; assay type: cell-based; details: Mycolicibacterium smegmatis, ATCC700084, 72 h; ATCC 700084, 3 days at 37 °C; read-out: MIC M. smegmatis
[13] = tested on: MRSA SA 630; assay: Antibacterial screening, broth microdilution MIC; assay type: cell-based, methicillin-resistant S. aureus; details: Staphylococcus aureus, clinical isolate, 24 h at 37 °C, read-out: MIC MRSA SA 630

Row | Structure (SMILES) | MIC [1] [µM] | MIC [2] [µM] | MIC [3] [µM] | MIC [4] [µM] | log D6.5 [5] | log D7.4 [5] | log k (logarithm of the capacity factor) [5] | MIC [6] [µM] | MIC [7] [µM] | MIC [8] [µM] | MIC ([9]; DSM 44162, 14 days at 37 °C) [µM] | MIC [10] [µM] | MIC [11] [µM] | MIC [12] [µM] | MIC [13] [µM] | MIC [9] [µM]
1 | Cc1cc(C)c(NC(=O)c2c(O)ccc3ccccc23)c(C)c1 [Compound 14, 2-Hydroxy-N-(2,4,6-trimethylphenyl)naphthalene-1-carboxamide] | 838 (≈ 256 µg/mL) | 838 (≈ 256 µg/mL) | 210 (≈ 64.1 µg/mL) | 838 (≈ 256 µg/mL) | 0.2629 | 0.2691 | 0.2539 | 419 (≈ 128 µg/mL) | 838 (≈ 256 µg/mL) | 838 (≈ 256 µg/mL) | 838 (≈ 256 µg/mL) | 838 (≈ 256 µg/mL) | 838 (≈ 256 µg/mL) | 210 (≈ 64.1 µg/mL) | 838 (≈ 256 µg/mL) | –
2 | COc1ccc(Cl)c(NC(=O)c2c(O)ccc3ccccc23)c1 [Compound 18, N-(2-Chloro-5-methoxyphenyl)-2-hydroxynaphthalene-1-carboxamide] | 781 (≈ 256 µg/mL) | 781 (≈ 256 µg/mL) | 391 (≈ 128 µg/mL) | 781 (≈ 256 µg/mL) | 0.4607 | 0.4593 | 0.46 and 0.4635 | 97.6 (≈ 32 µg/mL) | 48.8 (≈ 16 µg/mL) | 781 (≈ 256 µg/mL) | – | 781 (≈ 256 µg/mL) | 195 (≈ 63.9 µg/mL) | 781 (≈ 256 µg/mL) | 48.8 (≈ 16 µg/mL) | 391 (≈ 128 µg/mL)
3 | NNC(=O)c1ccncc1 [INH, isoniazid, reference compound] | – | – | 36.5 (≈ 5.01 µg/mL) | – | – | – | – | – | – | – | 233 (≈ 32 µg/mL) | – | – | 117 (≈ 16 µg/mL) | – | –
4 | Cc1cccc(NC(=O)c2c(O)ccc3ccccc23)c1 [Compound 9, 2-hydroxy-N-(3--methylphenyl)naphthalene-1-carboxamide] | 462 (≈ 128 µg/mL) | 462 (≈ 128 µg/mL) | 231 (≈ 64.1 µg/mL) | 462 (≈ 128 µg/mL) | 0.1644 | 0.1727 | 0.1762 | – | – | 462 (≈ 128 µg/mL) | 115 (≈ 31.9 µg/mL) | 462 (≈ 128 µg/mL) | 462 (≈ 128 µg/mL) | – | – | –
5 | CO[C@H]1/C=C/O[C@@]2(C)Oc3c(C)c(O)c4c(O)c(c(/C=N/N5CCN(C)CC5)c(O)c4c3C2=O)NC(=O)/C(C)=C\C=C\[C@H](C)[C@H](O)[C@@H](C)[C@@H](O)[C@@H](C)[C@H](OC(C)=O)[C@@H]1C [RIF, rifampicin, reference compound] | – | – | 9.71 (≈ 7.99 µg/mL) | – | – | – | – | – | – | – | 0.15 (≈ 0.123 µg/mL) | – | – | 19.4 (≈ 16 µg/mL) | – | –
6 | COc1ccc(Br)cc1NC(=O)c1c(O)ccc2ccccc12 [Compound 19, N-(5-Bromo-2-methoxyphenyl)-2-hydroxynaphthalene-1-carboxamide] | 688 (≈ 256 µg/mL) | 688 (≈ 256 µg/mL) | 344 (≈ 128 µg/mL) | 688 (≈ 256 µg/mL) | 0.5836 | 0.5835 | 0.5845 | 688 (≈ 256 µg/mL) | 688 (≈ 256 µg/mL) | 688 (≈ 256 µg/mL) | 688 (≈ 256 µg/mL) | 688 (≈ 256 µg/mL) | 688 (≈ 256 µg/mL) | 688 (≈ 256 µg/mL) | 688 (≈ 256 µg/mL) | –
